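Method: 48-hour compound exposure of cells in 96-well plates, five concentrations, linear interpolation of endpoints. At the GI50, growth is halved.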 Activity calls are given as the source filed them. Cut-off read from the data, not from the text of the source: active = GI50 up to about 1.1 µM and inactive = higher.
Key:
Assay in all cases: NCI anticancer screen, dose series, 48 h
U-251 = test system: U-251
SK-MEL-28 = test system: SK-MEL-28
ACHN = test system: ACHN
CCRF-CEM = test system: CCRF-CEM
NCI/ADR-RES = test system: NCI/ADR-RES
M14 = test system: M14
HT-29 = test system: HT-29
NCI-H23 = test system: NCI-H23
NCI-H226 = test system: NCI-H226
HCC 2998 = test system: HCC 2998
HL-60 = test system: HL-60
SNB-75 = test system: SNB-75
NCI-H460 = test system: NCI-H460
HCT-116 = test system: HCT-116
SK-MEL-5 = test system: SK-MEL-5
SN12C = test system: SN12C
A549 = test system: A549

Measured: GI50

CC(=O)Nc1ccc(-c2nc3ccccc3s2)cc1C
inactive: U-251 71.6 µM | SK-MEL-28 99.1 µM | ACHN 44.4 µM | CCRF-CEM > 100 µM | NCI/ADR-RES 42.2 µM | M14 68.7 µM | HT-29 > 100 µM | NCI-H23 75.5 µM | NCI-H226 26.9 µM | HCC 2998 42.9 µM | HL-60 29.9 µM | SNB-75 38.5 µM | NCI-H460 78.2 µM | HCT-116 78.7 µM | SK-MEL-5 58.9 µM

CC1=NN(c2nc(N)nc(COc3ccc(N)cc3)n2)C(C)(C)C1
inactive: U-251 > 100 µM | SK-MEL-28 > 100 µM | ACHN > 100 µM | CCRF-CEM > 100 µM | NCI/ADR-RES > 100 µM | M14 > 100 µM | HT-29 > 100 µM | NCI-H23 > 100 µM | NCI-H226 > 100 µM | HCC 2998 > 100 µM | HL-60 > 100 µM | SNB-75 > 100 µM | NCI-H460 > 100 µM | HCT-116 > 100 µM | SK-MEL-5 > 100 µM

Oc1c(Cl)c(Cl)c(O)c(CCNc2ccc3ncccc3c2)c1Cl
inactive: U-251 8.87 µM | SK-MEL-28 24.5 µM | ACHN 13.7 µM | NCI/ADR-RES 12.2 µM | M14 11.5 µM | HT-29 30.1 µM | NCI-H23 10.2 µM | SN12C 13.9 µM | HCC 2998 12.9 µM | A549 17.2 µM | HL-60 5.07 µM | SNB-75 16.1 µM | NCI-H460 18.9 µM | HCT-116 14.5 µM | SK-MEL-5 1.88 µM

CSc1ncc2c(C#N)c3n(C)c4ccccc4n3c(=O)c2n1
inactive: U-251 > 100 µM | SK-MEL-28 > 100 µM | ACHN > 100 µM | CCRF-CEM > 100 µM | NCI/ADR-RES > 100 µM | M14 > 100 µM | HT-29 > 100 µM | NCI-H23 > 100 µM | SN12C > 100 µM | NCI-H226 > 100 µM | HCC 2998 > 100 µM | A549 > 100 µM | HL-60 > 100 µM | SNB-75 > 100 µM | NCI-H460 > 100 µM | HCT-116 > 100 µM | SK-MEL-5 > 100 µM

O=S(=O)(N/C(=N\O)Nc1ccc(Cl)cc1)c1ccc(S(=O)(=O)c2ccccc2)s1
inactive: U-251 20.8 µM | SK-MEL-28 17.7 µM | ACHN 20 µM | CCRF-CEM 19.1 µM | NCI/ADR-RES 27.5 µM | M14 18.5 µM | HT-29 22.3 µM | NCI-H23 17 µM | SN12C 17.4 µM | NCI-H226 14.6 µM | HCC 2998 14.3 µM | A549 28.6 µM | HL-60 27.4 µM | NCI-H460 14.4 µM | HCT-116 16.7 µM | SK-MEL-5 11.2 µM
